Article PMC6930638, “The Masked Polar Group Incorporation (MPGI) Strategy in Drug Design: Effects of Nitrogen Substitutions on Combretastatin and Isocombretastatin Tubulin Inhibitors” (Molecules, 2019)
Like-named read-outs stand apart in the source and are kept apart here. One block for each compound: values may come before it.

Legend:
[1] = system: Bovine brain microtubule protein (MTP); parameters: method as in PMID 26092446; details: comparison values in text; read-out: TPI IC50; cited from earlier work
[2] = system: Bovine brain microtubule protein (MTP); test: Tubulin polymerization inhibition assay (turbidimetry); type: biochemical; details: 1.5 mg/mL MTP; IC50 calculated only if more than 50% inhibition at 20 µM; read-out: TPI IC50
[3] = system: HeLa, HT-29 and MCF-7 human tumor cell lines; test: Antiproliferative activity over the three human tumor cell lines (MTT); type: cell-based; details: Homo sapiens, range over the cell lines, Table S1; read-out: Cytotoxicity range (range of antiproliferative IC50 values)
[4] = system: HT-29 colon adenocarcinoma; test: MTT cell antiproliferative assay, HT-29 (without or with verapamil); type: cell-based, human
Procedure: The in vitro antiproliferative activity of the synthesized compounds was evaluated by a colorimetric reaction, using the MTT reagent. They were tested against three different human tumor cell lines: HeLa cervix epithelioid carcinoma, HT-29 colon adenocarcinoma, and MCF-7 breast adenocarcinoma. […] Moving the alkylamino substituent from a para to a meta position with respect to the bridge results in potency reduction, except for the phenstatin analogue 1f. However, the introduction of a nitrogen atom to form 2-dimethylaminopyridine derivatives entails a loss of activity, both for phenstatin analogues (1b, 2b), while for isocombretastatins, it only involves a 2–3 times potency decrease (3b). For combretastatins, it implies an improvement in the cytotoxicity values down to tenths of nanomolar (8b). […] On the other hand, the best 2-dimethylaminopyridine was combretastatin 8b. All ammonium salts derivatives were not cytotoxic at micromolar concentrations.
As observed in Table 1, there are no significant changes in the IC50 values for most compounds, except for combretastatins 8a and 8i.
Acquired resistance to antitumor drugs is one of the more important problems of chemotherapy, also affecting tubulin-targeting drugs. In order to ascertain the impact of multidrug resistance phenotypes on the action of the compounds, we have measured the cell proliferation inhibitory activity of HT-29 cells in the presence of verapamil, a known P-glycoprotein 1/multidrug resistance protein 1 (MDR1) inhibitor at a concentration of 10 µM, not affecting cell proliferation. […] Except for the combretastatin analogues 8a and 8i, the affected drugs are all pyridine drugs.
HeLa (human cervical carcinoma) and MCF-7 (human breast carcinoma) cell lines were cultured in Dulbecco’s Modified Eagles Medium (DMEM) supplemented with 2 mM L-glutamine (Lonza-Cambrex, Karlskoga, Sweden), 10% (v/v) heat inactivated fetal bovine serum (HIFBS) (Lonza-Cambrex) and 100 μg/mL streptomycin-100 IU/mL penicillin (Lonza-Cambrex) at 37 °C in humidified 95% air and 5% CO2. HT-29 (human colon carcinoma) cells were cultured at 37 °C in complete RPMI 1640 medium containing 2 mM L-glutamine, 10% (v/v) HIFBS and 100 μg/mL streptomycin-100 IU/mL penicillin in humidified 95% air and 5% CO2 atmosphere.
The effect of the different compounds on the proliferation of human cell lines was determined by using the MTT (3-[4,5-dimethylthiazol-2-yl]-2,5-diphenyltetrazolium bromide) reagent (MTT Thiazolyl Blue Tetrazolium Bromide, Sigma-Aldrich, St. Louis, MO, USA) dissolved in PBS 5 mg/mL. Cell viability was evaluated seeding 100 µL of cells in exponential growth phase with appropriate cell line concentration (1.5 × 10^4 HeLa and MCF-7 cells/mL and 3 × 10^4 HT-29 cells/mL) in complete medium in 96-well plates at 37 °C and 5% CO2. After 24 h incubation to allow cells to attach to the plates the ligands were added at different concentrations from 10^−5 to 10^−9 M. The effect on the proliferation was evaluated 72 h post-treatment by adding the MTT reagent (10 µL/well) to a final concentration of 0.5 mg/mL and the plate was further incubated for another 3 h. After this period, the supernatant was removed, the MTT violet crystals formed on the bottom of each well were dissolved in DMSO (100 µL/well) and subsequently, the absorbance of the color complex was read at 570 nm using a multi-well plate reader. Compounds were dissolved in dimethyl sulfoxide (DMSO) and the final solvent concentrations never exceeded 0.5% (v/v). The control wells included treated cells with 0.5% (v/v) DMSO and the positive control. Measurements were performed in triplicate, and each experiment was repeated three times. […] Nonlinear curves fitting the experimental data were carried out for each compound.

[5] = system: MCF-7 breast adenocarcinoma; test: MTT cell antiproliferative assay, MCF-7; type: cell-based; details: Homo sapiens, MCF7, 72 h
[6] = system: HeLa cervix epithelioid carcinoma; test: MTT cell antiproliferative assay, HeLa; type: cell-based; details: Homo sapiens, 72 h
[7] = system: rat primary pancreatic cells; test: Toxicity against rat primary pancreatic cells (MTT); details: 7 h
Procedure: The toxicity of the compounds against rat primary pancreatic cells was evaluated by the MTT protocol (Table 2). […] Sodium taurocholate (NaTc) was also used at high concentrations as a model of acute pancreatitis in vitro.
Rat primary pancreatic cells were isolated as previously described. Afterwards, pancreatic cells were resuspended in Na-HEPES solution (pH 7.4) containing 14 mM glucose, 1% essential amino acid mixture, 1% (w/v) BSA, 0.01% (w/v) STI, 0.5 mM CaCl2 and incubated (5% CO2, at 37 °C) for 7 h in the absence (non-treated control) or the presence of compounds at different concentrations. After the treatment, cells were incubated (5% CO2, at 37 °C) with 0.5 mg/mL MTT for 2 h and the formazan crystals were solubilized with DMSO (v/v). The optical density was read at 570 nm with a reference wavelength of 630 nm. Non-treated cell viability was set as 100%.

IC50 [2]: 3.4 µM
improvement of HT-29 IC50 after verapamil treatment ([4]; 10 µM verapamil): > 2 fold
IC50 ([4]; Homo sapiens, HT-29, MTT, 72 h): 503 nM
IC50 [5]: 273 nM
IC50 [6]: 208 nM
Compound: COc1cc(C=Cc2ccc(N(C)C)cc2)cc(OC)c1OC [Compound 8a, N,N-dimethyl-4-(3,4,5-trimethoxystyryl)aniline]
IC50 [1]: 3.4 µM
IC50 [3]: 102 to 503 nM

Compound: COc1ccc(/C=C\c2cc(OC)c(OC)c(OC)c2)cc1O [CA-4, Combretastatin A4, reference compound]
IC50 [1]: 1 to 4 µM

Compound: C[C@H](CCC(=O)NCCS(=O)(=O)O)[C@H]1CC[C@H]2[C@@H]3[C@H](O)C[C@@H]4C[C@H](O)CC[C@]4(C)[C@H]3C[C@H](O)[C@]12C [NaTc, Sodium taurocholate, reference compound]
live cells with respect to the non-treated control (means ± S.E.M.) ([7]; 0.50%): 24.83 ± 11.86%

Compound: COc1cc([C@@H]2c3cc4c(cc3[C@@H](O[C@@H]3O[C@@H]5CO[C@@H](C)O[C@H]5[C@H](O)[C@H]3O)[C@H]3COC(=O)[C@H]23)OCO4)cc(OC)c1O [Etoposide, etoposide, reference compound]
live cells with respect to the non-treated control (means ± S.E.M.) ([7]; rat, 0.05 µM, pH 7.4): 89.87 ± 11.80%
